# From the CheMixHub viscosity set
# ± gives the uncertainty stated by the source.
# Assay: xn = mol fraction of the nth substance listed
smiles,measurement,setting,value
CCC1CCCCC1 + CCCCCO,viscosity,"293.15 K, 100 kPa, x2 = 0.1003",0.91 ± 0.037 mPa·s
same,viscosity,"293.15 K, 100 kPa, x2 = 0.2013",0.99 ± 0.041 mPa·s
same,viscosity,"293.15 K, 100 kPa, x2 = 0.3005",1.108 ± 0.045 mPa·s
same,viscosity,"293.15 K, 100 kPa, x2 = 0.4001",1.248 ± 0.051 mPa·s
same,viscosity,"293.15 K, 100 kPa, x2 = 0.5004",1.489 ± 0.061 mPa·s
same,viscosity,"293.15 K, 100 kPa, x2 = 0.5995",1.788 ± 0.073 mPa·s
same,viscosity,"293.15 K, 100 kPa, x2 = 0.7009",2.169 ± 0.089 mPa·s
same,viscosity,"293.15 K, 100 kPa, x2 = 0.8003",2.681 ± 0.11 mPa·s
same,viscosity,"293.15 K, 100 kPa, x2 = 0.9007",3.292 ± 0.14 mPa·s
same,viscosity,"298.15 K, 100 kPa, x2 = 0.1003",0.845 ± 0.035 mPa·s
same,viscosity,"298.15 K, 100 kPa, x2 = 0.2013",0.915 ± 0.037 mPa·s
same,viscosity,"298.15 K, 100 kPa, x2 = 0.3005",1.024 ± 0.042 mPa·s
same,viscosity,"298.15 K, 100 kPa, x2 = 0.4001",1.177 ± 0.048 mPa·s
same,viscosity,"298.15 K, 100 kPa, x2 = 0.5004",1.339 ± 0.055 mPa·s
same,viscosity,"298.15 K, 100 kPa, x2 = 0.5995",1.613 ± 0.066 mPa·s
same,viscosity,"298.15 K, 100 kPa, x2 = 0.7009",1.948 ± 0.08 mPa·s
same,viscosity,"298.15 K, 100 kPa, x2 = 0.8003",2.339 ± 0.096 mPa·s
same,viscosity,"298.15 K, 100 kPa, x2 = 0.9007",2.862 ± 0.12 mPa·s
same,viscosity,"303.15 K, 100 kPa, x2 = 0.1003",0.785 ± 0.032 mPa·s
same,viscosity,"303.15 K, 100 kPa, x2 = 0.2013",0.848 ± 0.035 mPa·s
same,viscosity,"303.15 K, 100 kPa, x2 = 0.3005",0.943 ± 0.039 mPa·s
same,viscosity,"303.15 K, 100 kPa, x2 = 0.4001",1.071 ± 0.044 mPa·s
same,viscosity,"303.15 K, 100 kPa, x2 = 0.5004",1.21 ± 0.05 mPa·s
same,viscosity,"303.15 K, 100 kPa, x2 = 0.5995",1.425 ± 0.058 mPa·s
same,viscosity,"303.15 K, 100 kPa, x2 = 0.7009",1.724 ± 0.071 mPa·s
same,viscosity,"303.15 K, 100 kPa, x2 = 0.8003",2.056 ± 0.084 mPa·s
same,viscosity,"303.15 K, 100 kPa, x2 = 0.9007",2.495 ± 0.1 mPa·s
same,viscosity,"308.15 K, 100 kPa, x2 = 0.1003",0.728 ± 0.03 mPa·s
same,viscosity,"308.15 K, 100 kPa, x2 = 0.2013",0.778 ± 0.032 mPa·s
same,viscosity,"308.15 K, 100 kPa, x2 = 0.3005",0.855 ± 0.035 mPa·s
same,viscosity,"308.15 K, 100 kPa, x2 = 0.4001",0.942 ± 0.039 mPa·s
same,viscosity,"308.15 K, 100 kPa, x2 = 0.5004",1.087 ± 0.045 mPa·s
same,viscosity,"308.15 K, 100 kPa, x2 = 0.5995",1.263 ± 0.052 mPa·s
same,viscosity,"308.15 K, 100 kPa, x2 = 0.7009",1.501 ± 0.061 mPa·s
same,viscosity,"308.15 K, 100 kPa, x2 = 0.8003",1.796 ± 0.074 mPa·s
same,viscosity,"308.15 K, 100 kPa, x2 = 0.9007",2.166 ± 0.089 mPa·s
same,viscosity,"313.15 K, 100 kPa, x2 = 0.1003",0.682 ± 0.028 mPa·s
same,viscosity,"313.15 K, 100 kPa, x2 = 0.2013",0.73 ± 0.03 mPa·s
same,viscosity,"313.15 K, 100 kPa, x2 = 0.3005",0.801 ± 0.033 mPa·s
same,viscosity,"313.15 K, 100 kPa, x2 = 0.4001",0.882 ± 0.036 mPa·s
same,viscosity,"313.15 K, 100 kPa, x2 = 0.5004",0.998 ± 0.041 mPa·s
same,viscosity,"313.15 K, 100 kPa, x2 = 0.5995",1.156 ± 0.047 mPa·s
same,viscosity,"313.15 K, 100 kPa, x2 = 0.7009",1.337 ± 0.055 mPa·s
same,viscosity,"313.15 K, 100 kPa, x2 = 0.8003",1.602 ± 0.066 mPa·s
same,viscosity,"313.15 K, 100 kPa, x2 = 0.9007",1.92 ± 0.079 mPa·s
same,viscosity,"318.15 K, 100 kPa, x2 = 0.1003",0.651 ± 0.027 mPa·s
same,viscosity,"318.15 K, 100 kPa, x2 = 0.2013",0.693 ± 0.028 mPa·s
same,viscosity,"318.15 K, 100 kPa, x2 = 0.3005",0.752 ± 0.031 mPa·s
same,viscosity,"318.15 K, 100 kPa, x2 = 0.4001",0.834 ± 0.034 mPa·s
same,viscosity,"318.15 K, 100 kPa, x2 = 0.5004",0.929 ± 0.038 mPa·s
same,viscosity,"318.15 K, 100 kPa, x2 = 0.5995",1.061 ± 0.043 mPa·s
same,viscosity,"318.15 K, 100 kPa, x2 = 0.7009",1.246 ± 0.051 mPa·s
same,viscosity,"318.15 K, 100 kPa, x2 = 0.8003",1.454 ± 0.06 mPa·s
same,viscosity,"318.15 K, 100 kPa, x2 = 0.9007",1.723 ± 0.071 mPa·s
same,viscosity,"323.15 K, 100 kPa, x2 = 0.1003",0.61 ± 0.025 mPa·s
same,viscosity,"323.15 K, 100 kPa, x2 = 0.2013",0.647 ± 0.026 mPa·s
same,viscosity,"323.15 K, 100 kPa, x2 = 0.3005",0.697 ± 0.029 mPa·s
same,viscosity,"323.15 K, 100 kPa, x2 = 0.4001",0.773 ± 0.032 mPa·s
same,viscosity,"323.15 K, 100 kPa, x2 = 0.5004",0.849 ± 0.035 mPa·s
same,viscosity,"323.15 K, 100 kPa, x2 = 0.5995",0.959 ± 0.039 mPa·s
same,viscosity,"323.15 K, 100 kPa, x2 = 0.7009",1.115 ± 0.046 mPa·s
same,viscosity,"323.15 K, 100 kPa, x2 = 0.8003",1.294 ± 0.053 mPa·s
same,viscosity,"323.15 K, 100 kPa, x2 = 0.9007",1.529 ± 0.063 mPa·s
CCOC(=O)c1cccc(O)c1 + CCCCCOC(C)=O,viscosity,"298.15 K, 101 kPa, x2 = 0.5",1.587 ± 0.016 mPa·s
O=[N+]([O-])c1ccccc1O + CCCCCOC(C)=O,viscosity,"298.15 K, 101 kPa, x1 = 0.5",1.051 ± 0.01 mPa·s
CC1CCCCC1=O (centres undefined) + CCCCN,viscosity,"303.15 K, 101.33 kPa, x2 = 0.1214",1.802 ± 0.049 mPa·s
same,viscosity,"303.15 K, 101.33 kPa, x2 = 0.2017",1.906 ± 0.052 mPa·s
same,viscosity,"303.15 K, 101.33 kPa, x2 = 0.3249",1.944 ± 0.053 mPa·s
same,viscosity,"303.15 K, 101.33 kPa, x2 = 0.4512",1.826 ± 0.05 mPa·s
same,viscosity,"303.15 K, 101.33 kPa, x2 = 0.5524",1.715 ± 0.047 mPa·s
same,viscosity,"303.15 K, 101.33 kPa, x2 = 0.6849",1.417 ± 0.039 mPa·s
same,viscosity,"303.15 K, 101.33 kPa, x2 = 0.8025",1.126 ± 0.031 mPa·s
same,viscosity,"303.15 K, 101.33 kPa, x2 = 0.8938",0.855 ± 0.024 mPa·s
CC(=O)N(C)C + CCCCO,viscosity,"298.15 K, 100 kPa, x1 = 0.0565",2.252 ± 0.047 mPa·s
same,viscosity,"298.15 K, 100 kPa, x1 = 0.1063",2.049 ± 0.043 mPa·s
same,viscosity,"298.15 K, 100 kPa, x1 = 0.2094",1.716 ± 0.036 mPa·s
same,viscosity,"298.15 K, 100 kPa, x1 = 0.3134",1.503 ± 0.031 mPa·s
same,viscosity,"298.15 K, 100 kPa, x1 = 0.4106",1.361 ± 0.028 mPa·s
same,viscosity,"298.15 K, 100 kPa, x1 = 0.5083",1.263 ± 0.026 mPa·s
same,viscosity,"298.15 K, 100 kPa, x1 = 0.6042",1.179 ± 0.025 mPa·s
same,viscosity,"298.15 K, 100 kPa, x1 = 0.7096",1.119 ± 0.023 mPa·s
same,viscosity,"298.15 K, 100 kPa, x1 = 0.8046",1.061 ± 0.022 mPa·s
same,viscosity,"298.15 K, 100 kPa, x1 = 0.9078",0.9922 ± 0.021 mPa·s
same,viscosity,"298.15 K, 100 kPa, x1 = 0.9575",0.9601 ± 0.02 mPa·s
same,viscosity,"303.15 K, 101 kPa, x1 = 0.0968",1.862 ± 0.016 mPa·s
same,viscosity,"303.15 K, 101 kPa, x1 = 0.1997",1.585 ± 0.014 mPa·s
same,viscosity,"303.15 K, 101 kPa, x1 = 0.2976",1.43 ± 0.013 mPa·s
same,viscosity,"303.15 K, 101 kPa, x1 = 0.4",1.281 ± 0.012 mPa·s
same,viscosity,"303.15 K, 101 kPa, x1 = 0.4956",1.181 ± 0.012 mPa·s
same,viscosity,"303.15 K, 101 kPa, x1 = 0.599",1.097 ± 0.011 mPa·s
same,viscosity,"303.15 K, 101 kPa, x1 = 0.6978",1.029 ± 0.011 mPa·s
same,viscosity,"303.15 K, 101 kPa, x1 = 0.7867",0.975 ± 0.01 mPa·s
same,viscosity,"303.15 K, 101 kPa, x1 = 0.9006",0.917 ± 0.01 mPa·s
same,viscosity,"313.15 K, 100 kPa, x1 = 0.0565",1.598 ± 0.033 mPa·s
same,viscosity,"313.15 K, 100 kPa, x1 = 0.1063",1.477 ± 0.031 mPa·s
same,viscosity,"313.15 K, 100 kPa, x1 = 0.2094",1.287 ± 0.027 mPa·s
same,viscosity,"313.15 K, 100 kPa, x1 = 0.3134",1.15 ± 0.024 mPa·s
same,viscosity,"313.15 K, 100 kPa, x1 = 0.4106",1.063 ± 0.022 mPa·s
same,viscosity,"313.15 K, 100 kPa, x1 = 0.5083",0.9979 ± 0.021 mPa·s
same,viscosity,"313.15 K, 100 kPa, x1 = 0.6042",0.9502 ± 0.02 mPa·s
same,viscosity,"313.15 K, 100 kPa, x1 = 0.7096",0.9082 ± 0.019 mPa·s
same,viscosity,"313.15 K, 100 kPa, x1 = 0.8046",0.8651 ± 0.018 mPa·s
same,viscosity,"313.15 K, 100 kPa, x1 = 0.9078",0.8128 ± 0.017 mPa·s
same,viscosity,"313.15 K, 100 kPa, x1 = 0.9575",0.7894 ± 0.017 mPa·s
